Source: patent publication US11980607B2, “Methods of treating malignant lymphoproliferative disorders” (Actuate Therapeutics Inc., priority 2018, dated 2024)

Legend:
TCL and MCL lines = assay: Thymidine incorporation assay in TCL and MCL lines; type: cell-based, human; conditions: 9-ING-41 concentrations as low as 1.0 μM
Protocol: Unstimulated peripheral blood B- and T-lymphocytes isolated from a healthy donor were used as normal control. Pro-apoptotic effect of the GSK3 inhibitor 9-ING-41 in various MCL and TCL lines (A) and DLBCL lines (B). (C) Cell proliferation profile of various lymphoma cell lines upon treatment with 9-ING-41. Results (A-C) are from 3 independent experiments.
Cells were seeded at 1×10^4 cells/well in 96 well plates, and incubated with 9-ING-41 at indicated concentrations for 48 hours followed by pulsing with tritium labeled thymidine for overnight before being analyzed for thymidine uptake.
9-ING-41 can specifically induce lymphoma cell apoptosis without affecting normal lymphocytes. The thymidine incorporation assay in the presence or absence of 9-ING-41 was performed to test the role of GSK3 in lymphoma cell proliferation. […] The DLBCL lines required slightly higher concentrations. The IC50 of 9-ING-41 on cell proliferation for various lymphoma cell lines was calculated (Table 1).

[1] = system: lymphoma cell lines (Jeko, Mino, OCI-Ly3); assay: DNA cell cycle analysis; type: cell-based, human; conditions: after as little as 24 hours of treatment, all lines tested
Protocol: (B) Cell cycle profiles of parental Ly-1 cells and GSK3α, GSK3β, GSK-3αβ knockout subclones. Inset: Western blot image showing the depletion of GSK3α and GSK-3β protein in the knockout Ly-1 subclones.
Cells were fixed and permeabilized with cold ethanol, treated with RNase, and stained with propidium iodide (Sigma). Stained cells were run on a BD FACS Calibur using CELLQuest PRO Software (Becton Dickinson). Data were analyzed with FlowJo v.X software (Tree Star Inc).
The effect of 9-ING-41 on lymphoma cell cycle kinetics was examined. […] To further determine whether this G2/M arrest specifically resulted from GSK3β inhibition, the cell cycle profile of parental (wildtype), GSK3A, GSK3B, and GSK3A/B knockout Ly-1 subclones was examined. […] These cell cycle abnormalities of GSK3B-null and GSK3A/B-null Ly-1 cells are subtle and have little impact on the survival of the Ly-1 progeny, likely through Ly-1 cell line specific compensatory mechanisms.

[2] = Xenograft mice, 20 mg/kg intravenous, within 30 minutes; cited from earlier work
[3] = system: Caspase 3/7 activity in lymphoma cells; assay: EnzChek Caspase 3 assay; type: cell-based; conditions: 24 hours
Protocol: An EnzChek caspase 3 assay (Thermo Fisher Scientific) was performed in accordance with the manufacturer's instructions. 100,000 cells were plated in a 12-well plate and treated with varying concentrations of 9-ING-41 for 24 hours in duplicate. At the end of treatment, cells were centrifuged at 200 rcf for 5 minutes and washed once with 1× PBS and lysed in 50 μL of 1× lysis buffer provided by the kit. For efficient lysis, cells were subjected to a single freeze-thaw cycle. The lysed cells were centrifuged again to remove cell debris, and the supernatant was used in the assay. 50 μL of 2× substrate working solution containing Z-DEVD-R110 substrate was added to the cell lysate, with a subsequent incubation at room temperature for 45 minutes. […] Both of these products were then measured using a Biotek synergy 2 fluorescent plate reader at corresponding wavelengths (excitation 496 nm/emission 520 nm). The fluorescent reading was normalized to the amount of protein in the cell lysate as determined via standard BCA assay (Pierce Thermo Fisher Scientific). Relative fluorescence was calculated after setting the no-treatment control to 1. […]

SMILES: Cn1cc(C2=C(c3coc4ccc(F)cc34)C(=O)NC2=O)c2cc3c(cc21)OCO3 [9-ING-41, 3-(5-Fluorobenzofuran-3-yl)-4-(5-methyl-5H-[1,3]dioxolo[4,5-f]indol-7-yl)pyrrole-2,5-dione]
- Proliferation rate of all TCL and MCL lines (TCL and MCL lines): profoundly inhibited
- Cell cycle effect [1]: cell cycle blockage at G2/M
- 9-ING-41 concentration in plasma [2]: around 8 μM
- 9-ING-41 concentration in the brain [2]: around 40 μM
- Concentration giving an increase in Caspase 3/7 activity [3]: ≥ 0.5 µM
